Test results: ChEMBL document CHEMBL1201862, “PubChem BioAssay data set” (2004)
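All cell lines were grown in 96-well plates and treated with compound for 48 hours. Abbreviation: GI50, concentration required for 50% inhibition of growth.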 Activity calls are given as the source filed them. No stated cut-off is given here; in the data, active = GI50 up to about 1.1 µM and inactive = higher.

Assays:
Assay in all cases: DTP human tumour cell line panel, 48 h
[1] = test system: HCC 2998
[2] = test system: 786-0
[3] = test system: MOLT-4
[4] = test system: SK-OV-3
[5] = test system: SK-MEL-5
[6] = test system: EKVX
[7] = test system: SNB-75
[8] = test system: SN12C
[9] = test system: Malme-3M
[10] = test system: U-251
[11] = test system: SF-539
[12] = test system: A498
[13] = test system: SNB-19
[14] = test system: OVCAR-4
[15] = test system: MDA-MB-435
[16] = test system: NCI-H226
[17] = test system: SR
[18] = test system: HCT-15
[19] = test system: MDA-N
[20] = test system: ACHN

Structure (SMILES) | GI50 [1] | GI50 [2] | GI50 [3] | GI50 [4] | GI50 [5] | GI50 [6] | GI50 [7] | GI50 [8] | GI50 [9] | GI50 [10] | GI50 [11] | GI50 [12] | GI50 [13] | GI50 [14] | GI50 [15] | GI50 [16] | GI50 [17] | GI50 [18] | GI50 [19] | GI50 [20]
C#CCNC(=O)NC(CCCCNC(=O)OCc1ccccc1)C(=O)OCc1ccccc1 (stereo not given) | 31.5 µM (inactive) | > 95.7 µM (inactive) | 31 µM (inactive) | > 100 µM (inactive) | 18.3 µM (inactive) | > 100 µM (inactive) | 16.2 µM (inactive) | 37.4 µM (inactive) | 24.2 µM (inactive) | > 72.1 µM (inactive) | 38.9 µM (inactive) | 21.9 µM (inactive) | > 100 µM (inactive) | > 100 µM (inactive) | 22.8 µM (inactive) | 41.6 µM (inactive) | 34.8 µM (inactive) | > 100 µM | 32.9 µM (inactive) | 40.1 µM (inactive)
C[C@]12CC[C@H](O)C[C@@H]1CC[C@@H]1[C@@H]2CC[C@]2(C)[C@@H](c3cc(C(F)(F)F)[nH]n3)CC[C@@H]12 | 15 µM (inactive) | 4.35 µM (inactive) | 3.95 µM (inactive) | 13.8 µM (inactive) | 6.82 µM (inactive) | 10.8 µM (inactive) | 11.6 µM (inactive) | 7.59 µM (inactive) | > 37.3 µM (inactive) | 7.01 µM (inactive) | 7.36 µM (inactive) | 8.59 µM (inactive) | 9.68 µM (inactive) | 6.64 µM (inactive) | 10.1 µM (inactive) | 14.6 µM (inactive) | 3.87 µM (inactive) | 6.32 µM | 10.8 µM (inactive) | 7.21 µM (inactive)
CCOC(=O)C(=O)NNc1nc2c(s1)C(=O)c1ccccc1C2=O | 14.9 µM (inactive) | 10.6 µM (inactive) | 3.33 µM (inactive) | 20 µM (inactive) | 1.86 µM (inactive) | 7.46 µM (inactive) | 3.65 µM (inactive) | 1.87 µM (inactive) | 1.95 µM (inactive) | 7.06 µM (inactive) | 2.46 µM (inactive) | 22.8 µM (inactive) | 15.1 µM (inactive) | 1.85 µM (inactive) | 1.77 µM (inactive) | 15.7 µM (inactive) | 0.465 µM (active) | 2.54 µM | 1.8 µM (inactive) | 2.29 µM (inactive)
CC(C)C[C@H](NC(=O)[C@H](Cc1ccc(F)cc1)NC(=O)c1ccccn1)B(O)O | < 0.01 µM (active) | < 0.01 µM (active) | < 0.01 µM (active) | < 0.0148 µM (active) | < 0.01 µM (active) | < 0.01 µM (active) | < 0.01 µM (active) | < 0.01 µM (active) | < 0.01 µM (active) | < 0.01 µM (active) | < 0.01 µM (active) | < 0.01 µM (active) | < 0.01 µM (active) | < 0.01 µM (active) | < 0.01 µM (active) | < 0.01 µM (active) | < 0.01 µM (active) | < 0.01 µM | < 0.01 µM (active) | < 0.01 µM (active)
N[C@H]1c2c(Br)sc(Br)c2C(=O)[C@H]1O | 13.8 µM (inactive) | 18.6 µM (inactive) | 5.14 µM (inactive) | 12.3 µM (inactive) | 12.5 µM (inactive) | 12.9 µM (inactive) | 29.2 µM (inactive) | 1.56 µM (inactive) | 11.6 µM (inactive) | 14.4 µM (inactive) | 18.5 µM (inactive) | > 100 µM (inactive) | 21.8 µM (inactive) | 11.4 µM (inactive) | 13.7 µM (inactive) | 22.2 µM (inactive) | 2.69 µM (inactive) | 6.78 µM | 13.2 µM (inactive) | 24.7 µM (inactive)
CC1=C(/C=C/C(C)=C/C=C/C(C)=C/C(=O)O)C(C)(C)CCC1 [TRETINOIN] | 51.6 µM (inactive) | 49.9 µM (inactive) | 43.6 µM (inactive) | > 71.8 µM (inactive) | 47.8 µM (inactive) | > 100 µM (inactive) | > 61.9 µM (inactive) | 52 µM (inactive) | 46.3 µM (inactive) | 51.3 µM (inactive) | 48.6 µM (inactive) | > 74.5 µM (inactive) | 47.5 µM (inactive) | > 70 µM (inactive) | > 58.5 µM (inactive) | 43.4 µM (inactive) | 47 µM (inactive) | 48.2 µM | 45.8 µM (inactive) | 48.5 µM (inactive)
CC(=O)Nc1ccc(S(=O)(=O)c2nnc(NC(C)=O)s2)cc1 | > 100 µM (inactive) | > 100 µM (inactive) | > 100 µM (inactive) | > 100 µM (inactive) | > 100 µM (inactive) | > 100 µM (inactive) | > 100 µM (inactive) | > 100 µM (inactive) | > 100 µM (inactive) | > 100 µM (inactive) | > 100 µM (inactive) | > 100 µM (inactive) | > 100 µM (inactive) | > 100 µM (inactive) | > 100 µM (inactive) | > 100 µM (inactive) | > 100 µM (inactive) | > 100 µM | > 100 µM (inactive) | > 100 µM (inactive)
Cc1ccc(OCC2OC(n3cnc4nc(Cl)nc(Cl)c43)CC2Oc2ccc(C)cc2)cc1 (stereo not given) | 3.39 µM (inactive) | 5.25 µM (inactive) | 2.01 µM (inactive) | 30.3 µM (inactive) | 16.3 µM (inactive) | 11.2 µM (inactive) | 14.7 µM (inactive) | 7.31 µM (inactive) | 13.6 µM (inactive) | 11.1 µM (inactive) | 5.94 µM (inactive) | 22.4 µM (inactive) | 15.7 µM (inactive) | 15.7 µM (inactive) | 5.3 µM (inactive) | 12 µM (inactive) | 1.78 µM (inactive) | 2.36 µM | 3.74 µM (inactive) | 3.05 µM (inactive)
O=C(/C=C/c1ccsc1)c1ccc(Cl)s1 | 31.7 µM (inactive) | > 10 µM (inactive) | 20.6 µM (inactive) | > 100 µM (inactive) | > 100 µM (inactive) | > 100 µM (inactive) | > 100 µM (inactive) | 75.3 µM (inactive) | > 100 µM (inactive) | > 100 µM (inactive) | > 100 µM (inactive) | 34.5 µM (inactive) | > 100 µM (inactive) | > 100 µM (inactive) | 30.6 µM (inactive) | 53.3 µM (inactive) | 24 µM (inactive) | 43.5 µM | 56.6 µM (inactive) | > 100 µM (inactive)
Nc1ccn(C2CCC(CO)O2)c(=O)n1 (stereo not given) | > 100 µM (inactive) | > 1000 µM (inactive) | 63.8 µM (inactive) | > 100 µM (inactive) | > 100 µM (inactive) | > 100 µM (inactive) | > 100 µM (inactive) | > 100 µM (inactive) | > 100 µM (inactive) | > 100 µM (inactive) | > 100 µM (inactive) | > 91.8 µM (inactive) | > 100 µM (inactive) | > 83 µM (inactive) | > 1000 µM (inactive) | > 93.5 µM (inactive) | 367 µM (inactive) | > 100 µM | > 1000 µM (inactive) | 785 µM (inactive)
CCC1(O)CC(OC2CC(N(C)C)C(OC3CC(O)C(OC4CCC(=O)C(C)O4)C(C)O3)C(C)O2)c2c(cc3c(c2O)C(=O)c2c(O)ccc(O)c2C3=O)C1C(=O)OC (stereo not given) | < 0.01 µM (active) | < 0.01 µM (active) | < 0.01 µM (active) | < 0.01 µM (active) | < 0.01 µM (active) | < 0.01 µM (active) | < 0.01 µM (active) | < 0.01 µM (active) | < 0.01 µM (active) | < 0.01 µM (active) | < 0.01 µM (active) | < 0.01 µM (active) | < 0.0127 µM (active) | < 0.01 µM (active) | < 0.0122 µM (active) | < 0.01 µM (active) | < 0.01 µM (active) | < 0.01 µM | < 0.01 µM (active) | < 0.01 µM (active)
Nc1ccc(CCSSCCc2ccc(N)cc2)cc1 | 17.6 µM (inactive) | 17 µM (inactive) | 1.81 µM (inactive) | 43.6 µM (inactive) | 19.8 µM (inactive) | 53.5 µM (inactive) | 30.9 µM (inactive) | 22.9 µM (inactive) | 12.2 µM (inactive) | 19.6 µM (inactive) | 24.9 µM (inactive) | 32.1 µM (inactive) | 50.7 µM (inactive) | 28.6 µM (inactive) | 26.9 µM (inactive) | 27.5 µM (inactive) | 0.991 µM (active) | 23.4 µM | 27.7 µM (inactive) | 29.6 µM (inactive)
Cc1ncc(CO)c(/C=N/CCCCCC/N=C/c2c(CO)cnc(C)c2[O-])c1[O-].[Mg+2] | > 100 µM (inactive) | > 100 µM (inactive) | > 100 µM (inactive) | > 100 µM (inactive) | > 100 µM (inactive) | > 100 µM (inactive) | 99.5 µM (inactive) | > 100 µM (inactive) | > 100 µM (inactive) | > 100 µM (inactive) | > 100 µM (inactive) | > 100 µM (inactive) | > 100 µM (inactive) | > 100 µM (inactive) | > 100 µM (inactive) | > 100 µM (inactive) | 92.7 µM (inactive) | > 100 µM | > 100 µM (inactive) | > 100 µM (inactive)
